Assay results: ChEMBL document CHEMBL5726285, “Tricyclic compounds as anticancer agents” (2017)

Target: Bromodomain-containing protein 4 (Homo sapiens, UniProt O60885)
Test: Time Resolved Fluorescence Resonance Energy Transfer (TR-FRET) Assay: The binding of compounds to bromodomain BRD4 (44-168), BRD4 (333-460), and BRD4 (1-477 or 44-460) was assessed using a time resolved fluorescent resonance energy transfer binding assay (1), that measures the binding of a fluorescently labeled probe molecule to the bromodomain protein. The bromodomain protein, fluorescent probe molecule (either a biotinylated histone peptide or a fluorescently labeled small molecule), and dose-responded test compound are incubated together to reach thermodynamic equilibrium. In the absence of a test compound, the bromodomain and small molecule are bound, resulting in a high fluorescent signal. In the presence of a sufficient concentration of inhibitor, this intercation is disrupted resulting in a lost of fluorescent resonance energy transfer.All assay components were dissolved in buffer composition 20 mM Hepes pH 7.5, 150 mM NaCl, 5 mM DTT, 0.005% Tween 20, and 100 ug/ml BSA for BRD4 (1-477 and 44-460). The final concentrations of the bromodomain proteins are 1.6 nM BRD4(44-168), 1 nM BRD4(333-460), and 1 nM BRD4(1-477 or 44-460), and the fluorescent probe molecule is 100 nM, 50 nM, and 7.5 nM respectively. All proteins were biotinylated. A streptavidin labeled with terbium cryptate (Cisbio SA-Tb) was used as detection, and pre-mixed with the bromodomain protein at a final concentration of 0.2 nM. In some instances for BRD4 (44-460), anti-His terbium cryptate was used as a detection. 7.5 nl of dose-responded test compound or dmso vehicle (0.0375%) was pre-spotted in a black Corning 384 well plate and 10 ul each of bromodomain/detection reagent and fluorescent small molecule solution were added to the plate, and the reaction incubated for 60 min at room temperature. Plates were then read on EnVision plate reader, (λex=340 nm, acceptor λEm=520 nm, and donor λEm=615 nm, LANCE D400 mirror). Time resolved fluorescnce intensity measurements were made at both emissions, and the ratio of acceptor/donor was calculated and used for data analysis.

COc1nnn(C)c1-c1cnc2c3c(OC)ncc(S(C)(=O)=O)c3n([C@H](c3ccccc3)C3CCOCC3)c2c1
IC50: < 10 nM

Cc1nnn(C)c1-c1cnc2c3c(N(C)C(C)C)ncc(S(C)(=O)=O)c3n(C(c3ccccc3)C3CCC(F)(F)CC3)c2c1 (stereo not drawn)
IC50: < 10 nM

Cc1nnn(C)c1-c1cnc2c3ccc(N4CCN(C)CC4)nc3n(C(c3ccccc3)C3CCC(F)(F)CC3)c2c1 (stereo not drawn)
IC50: < 1 nM

Cc1nnn(C)c1-c1cnc2c3c(OC(C)C)ncc(S(C)(=O)=O)c3n(C(c3ccccc3)C3CCC(F)(F)CC3)c2c1 (stereo not drawn)
IC50: < 10 nM

COC1CN(c2ncc(S(C)(=O)=O)c3c2c2ncc(-c4c(C)nnn4C)cc2n3C(c2ccccc2)C2CCC(F)(F)CC2)C1 (stereo not drawn)
IC50: < 10 nM

Cc1nnn(C)c1-c1cnc2c3c(NCC(C)C)ncc(S(C)(=O)=O)c3n(C(c3ccccc3)C3CCC(F)(F)CC3)c2c1 (stereo not drawn)
IC50: < 10 nM

Cc1nnn(C)c1-c1cnc2c3c(NC(C)C)ncc(S(C)(=O)=O)c3n(C(c3ccccc3)C3CCC(F)(F)CC3)c2c1 (stereo not drawn)
IC50: < 10 nM

CNCCN(C)c1ccc2c3ncc(-c4c(C)nnn4C)cc3n(C(c3ccccc3)C3CCC(F)(F)CC3)c2n1 (stereo not drawn)
IC50: < 10 nM
